In patent publication US20030148337A1, “ARL-2 for birth control” (Schering AG, priority 2001, published 2003):

Columns and labels:
human ARL-2 protein = target: T1, human ARL-2 protein (Homo sapiens, UniProt C9JRZ8); experiment: Standard ARL-2 enzyme assay (NADPH A340 decrease); format: biochemical; conditions: sodium-phosphate buffer pH 6.3, 0.2 mmol NADPH, 28° C.
T1 construct: For the expression of the ARL-2 protein, the coding area was amplified by means of the polymerase chain reaction; His-tag; made in house; host or cells: E. coli (pQE30) or insect cells (baculovirus pBlueBac4.5/V5-His-TOPO)
Text: For the expression of the ARL-2 protein, the coding area was amplified by means of the polymerase chain reaction (for reaction conditions, see Example 2) (primer for the N-terminal area: 5′ ATGGCCACGTTTGTGGAGCTC 3′; primer for the C-terminal area: 5′ ATATTCTGCATCGAAGGGAAA 3′), and inserted in the baculovirus expression vector pBlueBac4.5/V5-His-TOPO (Invitrogen) or the eukaryotic expression vector pcDNA3.1/V5/His-TOPO (Invitrogen). For the expression of the ARL-2 protein in E. coli, the coding area was amplified by means of a polymerase chain reaction (for reaction conditions, see Example 2) (primer for the N-terminal area: 5′ CGGGATCCGCCACGTTTGTGGAGCTC 3′; primer for the C-terminal area: 5′ CCCAAGCTTTCAATATTCTGCATCGAAGGGAAA 3′) and inserted in the procaryotic expression vector pQE30 (Quiagen). To simplify detection and purification, a fusion with an His-tag was carried out. […]
A standard ARL-2 enzyme assay was performed as follows: The standard enzyme reaction batch contained 135 mmol of sodium-phosphate buffer (pH 6.3), 0.2 mmol of NADPH and measured substrate and enzyme concentrations. The enzyme reaction was carried out at 28° C., and the substrate conversion was determined by spectrometry via the reduction of A340 of the NADPH. […] Controls without substrate and without enzyme were measured with respect to the standard. […]

[1] = test system: endothelial cell cultures; conditions: Herbst et al., 1997; cited from earlier work
neuronal cell cultures = conditions: Kruman et al., 1997; Malecki et al., 2000; cited from earlier work
[2] = test system: adrenocorticotrophic carcinoma cell line Y1; experiment: Test system for apoptosis-inducing substances, annexin-V staining in Y1 cells; format: cell-based, mouse; conditions: concentration of 10 μM; 12 hours incubation
Description: In this test system, substances can be examined with respect to their apoptosis-inducing action. The adrenocorticotrophic carcinoma cell line Y1 was used as a cell system. Cell cultures of this mouse cell line were treated for 12 hours with different substances before the rate of apoptosis in the cells was determined. […] Y1 cells/ml were resuspended in DME/F12 (+10% FCS) and treated with the substances to be tested. After 12 hours of incubation time, the apoptosis rate was determined in the Y1 cells using annexin-V-alexa 468 staining (Roche) in combination with DNA staining (Hoechst-33258, Molecular Probes) according to manufacturer's information.

T1 sequence (C9JRZ8 whole entry): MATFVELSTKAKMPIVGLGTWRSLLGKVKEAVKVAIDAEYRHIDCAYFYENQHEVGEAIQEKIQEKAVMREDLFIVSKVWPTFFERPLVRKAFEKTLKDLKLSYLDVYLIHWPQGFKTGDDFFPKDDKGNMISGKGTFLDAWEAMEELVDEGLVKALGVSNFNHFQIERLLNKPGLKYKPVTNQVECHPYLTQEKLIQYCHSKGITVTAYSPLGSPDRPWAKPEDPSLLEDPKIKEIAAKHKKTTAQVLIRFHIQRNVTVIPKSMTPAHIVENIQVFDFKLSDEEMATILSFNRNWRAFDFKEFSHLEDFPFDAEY

Structure (SMILES)	substrate of the aldo-keto-reductase ARL-2 (human ARL-2 protein)	induction of apoptosis in endothelial cell cultures [1]	induction of apoptosis in neuronal cell cultures (neuronal cell cultures)	induction of apoptosis in the Y1 cell line [2]
CC(C)CCC=O [isocaproaldehyde]	preferred substrates	–	–	–
CCCCCC(O)/C=C/C=O (centres unmarked) [4-hydroxynonenal]	preferred substrates	induces apoptosis	induces apoptosis	can induce apoptosis
